The values below come from PubChem BioAssay (NCI).

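How tested: cells in 96-well plates exposed to compound for 48 hours at five concentrations. TGI is the concentration that stops growth completely.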

Among the test systems are SR leukemia; OVCAR-4 ovarian; A549 NSCLC; NCI-H226 lung; MCF7 breast; UACC-257 melanoma; HCC-2998 colon; DU-145 prostate; M14 melanoma; SF-539 CNS.
What all share (assay): growth of human tumour cells (NCI), 48 h

As to `CCOC(=O)c1c(-c2ccc(OC)cc2)c(C#N)c(=S)n(C2OC(COC(C)=O)C(OC(C)=O)C(OC(C)=O)C2OC(C)=O)c1C` (stereo not given), the TGI in the assay with SR leukemia is over 100 µM; in the assay with OVCAR-4 ovarian, 92.2 µM; in the assay on A549 NSCLC, over 100 µM; in the assay on NCI-H226 lung, over 100 µM; in the assay on MCF7 breast it was over 100 µM; in the assay with UACC-257 melanoma, over 100 µM. In addition, the TGI in the assay with HCC-2998 colon, in the assay with DU-145 prostate, in the assay with M14 melanoma and in the assay with SF-539 CNS was over 100 µM in each case.
`CC(C)(C)NC(=O)/C(=C\Sc1ccccc1)c1ccc2c(c1)OCO2`: the TGI in the assay with SR leukemia is 83.8 µM; with OVCAR-4 ovarian it was over 100 µM; in the assay on A549 NSCLC, over 100 µM; in the assay on MCF7 breast, 60.6 µM; in the assay with UACC-257 melanoma it was 74.5 µM; with HCC-2998 colon, over 100 µM. Moreover, the TGI in the assay on DU-145 prostate is over 100 µM; in the assay on M14 melanoma, 54.8 µM; in the assay with SF-539 CNS it was over 100 µM.
Turning to `O=C1/C(=C\c2cccc(Oc3ccccc3)c2)S(=O)(=O)C(c2ccccc2)N1Cc1ccccc1` (stereo not given), the TGI is 46.2 µM with SR leukemia; over 100 µM with A549 NSCLC; over 100 µM in the assay with MCF7 breast; 62.2 µM in the assay on UACC-257 melanoma; 82.5 µM in the assay on HCC-2998 colon; 74 µM in the assay with DU-145 prostate. The figures for the TGI in the assay on M14 melanoma and with SF-539 CNS were 76.6 µM and over 100 µM, respectively.
With `Clc1ccc(-c2nn3c(-c4ccncc4)nnc3s2)cc1`, the TGI in the assay with SR leukemia, with OVCAR-4 ovarian, with A549 NSCLC, in the assay on NCI-H226 lung, in the assay with MCF7 breast and in the assay on UACC-257 melanoma was over 100 µM in each case. The TGI with DU-145 prostate, in the assay with M14 melanoma and in the assay with SF-539 CNS was over 100 µM in each case.
For the compound `CS(=O)(=O)OCCn1c(=O)n(CCOS(C)(=O)=O)c(=O)n(CCOS(C)(=O)=O)c1=O`, the TGI with SR leukemia, in the assay on OVCAR-4 ovarian, with A549 NSCLC, in the assay on NCI-H226 lung, with MCF7 breast and in the assay on UACC-257 melanoma was over 100 µM in each case. In addition, the TGI with HCC-2998 colon, in the assay with DU-145 prostate and in the assay on SF-539 CNS was over 100 µM in each case.
For `O=c1c2ccccc2nc2[nH][nH]c(=S)n12`, the TGI in the assay with SR leukemia, in the assay with A549 NSCLC, with NCI-H226 lung, in the assay with MCF7 breast, with UACC-257 melanoma and with DU-145 prostate was over 100 µM in each case. The TGI in the assay on M14 melanoma and in the assay on SF-539 CNS was over 100 µM each time.
With `Cc1cc2[nH]c3[nH]c(=O)[nH]c(=O)c3c2cc1C`, the TGI in the assay on SR leukemia, in the assay with A549 NSCLC, with NCI-H226 lung, with MCF7 breast, with UACC-257 melanoma and with HCC-2998 colon was over 100 µM throughout. For the same compound, the TGI with DU-145 prostate, with M14 melanoma and with SF-539 CNS was over 100 µM throughout.
Take `O=C(N=Nc1cc(Cl)ccc1Cl)NNc1cc(Cl)ccc1Cl`: the TGI in the assay with SR leukemia is over 100 µM; in the assay with MCF7 breast, 36.4 µM; in the assay with HCC-2998 colon, 94.1 µM; in the assay with DU-145 prostate it was over 100 µM; with M14 melanoma, 32.5 µM.
For `CCOc1cc(C2CC(c3ccc(NS(=O)(=O)c4cc([N+](=O)[O-])ccc4C)cc3)=NN2C(=O)c2ccccc2)ccc1O` (stereo not given), the TGI in the assay with SR leukemia is over 100 µM; in the assay with OVCAR-4 ovarian, over 100 µM; in the assay on A549 NSCLC, over 100 µM; with NCI-H226 lung, over 100 µM; in the assay on MCF7 breast, over 100 µM; in the assay on UACC-257 melanoma, 91.5 µM. For the same compound, the figures for the TGI with DU-145 prostate, with M14 melanoma and in the assay with SF-539 CNS were over 100 µM, 76.1 µM and 52.8 µM, respectively.
As to `COc1ccc2cc3c4cc5c(cc4cc[n+]3cc2c1OC)OCO5`, the TGI is over 100 µM in the assay on OVCAR-4 ovarian; over 100 µM in the assay on A549 NSCLC; over 100 µM in the assay with NCI-H226 lung; over 96.2 µM in the assay with MCF7 breast; 30.4 µM in the assay with UACC-257 melanoma; over 55.5 µM with HCC-2998 colon. Besides, the results for the TGI with DU-145 prostate, with M14 melanoma and in the assay on SF-539 CNS were over 100 µM, 68 µM and over 58.5 µM, respectively.
Take `CN(C)Cc1cc(C(=O)/C=C/c2ccc(O)cc2)cc(CN(C)C)c1O`: the TGI is 69.5 µM in the assay with SR leukemia; over 100 µM in the assay with A549 NSCLC; over 100 µM with NCI-H226 lung; over 100 µM with MCF7 breast; over 100 µM in the assay on UACC-257 melanoma; over 100 µM with HCC-2998 colon. Also, the TGI in the assay with DU-145 prostate, in the assay on M14 melanoma and in the assay on SF-539 CNS was over 100 µM each time.
As for `Cc1c(S(=O)(=O)/N=C(\N)Nc2ccc(Cl)cc2)sc2ccc(Cl)cc12`, the TGI with SR leukemia is over 100 µM; in the assay on OVCAR-4 ovarian, 68.8 µM; in the assay with A549 NSCLC, 46.8 µM; in the assay on NCI-H226 lung, 44 µM; in the assay with MCF7 breast, 35.8 µM; in the assay with UACC-257 melanoma it was 40.4 µM. For the same compound, the values for the TGI in the assay on DU-145 prostate, in the assay with M14 melanoma and in the assay on SF-539 CNS were 36.2 µM, 37.9 µM and over 100 µM, respectively.
In the case of `C(=N\NC1=NCCCN1)/c1ccc2ccccc2c1`, the TGI with OVCAR-4 ovarian amounted to 39.3 µM; in the assay with A549 NSCLC it was 22.4 µM; with NCI-H226 lung it was 27.1 µM; in the assay with MCF7 breast it was 15.8 µM; with UACC-257 melanoma, 42.5 µM; in the assay on HCC-2998 colon it was 10.5 µM. Moreover, the TGI in the assay with DU-145 prostate worked out at 24.2 µM; in the assay on M14 melanoma it was 22.1 µM; in the assay with SF-539 CNS it was 31.1 µM.
`O=[N+]([O-])/C(C(Cl)=C(Cl)Cl)=C(\Nc1cccc2cccnc12)SCc1ccccc1`: the TGI in the assay on OVCAR-4 ovarian worked out at 46 µM; in the assay with A549 NSCLC it was 88.4 µM; with NCI-H226 lung it was 48.6 µM; with MCF7 breast, 36.5 µM; in the assay with UACC-257 melanoma it was 49.2 µM; in the assay on HCC-2998 colon, 36.7 µM. Besides, the TGI in the assay on DU-145 prostate is 39.6 µM; with M14 melanoma, 74.3 µM; in the assay with SF-539 CNS, 32.6 µM.
With `CN(C)C(=S)S`, the TGI with OVCAR-4 ovarian is over 100 µM; in the assay with A549 NSCLC, over 100 µM; in the assay with NCI-H226 lung, over 100 µM; in the assay on MCF7 breast, over 100 µM; in the assay with UACC-257 melanoma, over 100 µM; with HCC-2998 colon, 59.4 µM. Also, the TGI in the assay with DU-145 prostate, with M14 melanoma and with SF-539 CNS was over 100 µM in each case.
